Values of other authors, collected in PMC4984525 (Cancer, 2011).

System: tumor cell
Details: background statement; cited from earlier work

SMILES: CON(C)C(=O)N1N=C(c2cc(F)ccc2F)S[C@@]1(CCCN)c1ccccc1 [ARRY-520]
- concentrations inducing mitotic arrest and tumor cell death: sub-nanomolar
